Source: patent US20040014047A1, “Antisense modulation of LIM domain kinase 1 expression” (Isis Pharmaceuticals Inc., priority 2002, published 2004)
Strand notation (5' to 3'): a small letter for the sugar, then the base; units joined by * are phosphorothioate-linked, units joined directly phosphodiester-linked; [ ] holds rarer units or linkages, { } end groups; capitals alone tell only the bases. e = 2'-O-(2-methoxyethyl) (MOE); [5mC] = 5-methylcytosine; d = 2'-deoxy (DNA)

Test system: human LIM domain kinase 1 mRNA
Experiment: Antisense inhibition of human LIM domain kinase 1 mRNA levels, quantitative real-time PCR, A549 cells (screen)
Type: cell-based
Conditions: quantitative real-time PCR, averages from two experiments, screening concentration not given (50 nM to 300 nM used herein)
Experimental: When cells reached 70% confluency, they were treated with oligonucleotide. […] Cells were harvested 16-24 hours after oligonucleotide treatment.
Vacuum was applied for 1 minute.
PCR reagents were obtained from Invitrogen Corporation, (Carlsbad, Calif.).
Total RNA is quantified using RiboGreenTM RNA quantification reagent from Molecular Probes.
Probes and primers to human LIM domain kinase 1 were designed to hybridize to a human LIM domain kinase 1 sequence, using published sequence information (GenBank accession number D26309.1, incorporated herein as SEQ ID NO:4). For human LIM domain kinase 1 the PCR primers were: forward primer: […] (SEQ ID NO: 5) reverse primer: […] (SEQ ID NO: 6) and the PCR probe was: FAM-[…]-TAMRA (SEQ ID NO: 7) where FAM is the fluorescent dye and TAMRA is the quencher dye.
All cytidine residues are 5-methylcytidines. […] Data are averages from two experiments in which A549 cells were treated with the oligonucleotides of the present invention. […] If present, “N.D.” indicates “no data”.

Substance | % INHIB (inhibition of human LIM domain kinase 1 mRNA levels)
206193 (antisense eA*eG*eG*eT*e[5mC]*d[5mC]*dT*dT*dG*d[5mC]*dG*d[5mC]*dT*dG*dG*eG*eA*eG*eG*e[5mC]) [compound 206193] | 67%
206194 (antisense eG*eA*e[5mC]*e[5mC]*e[5mC]*dA*dG*dG*dT*d[5mC]*d[5mC]*dT*dT*dG*d[5mC]*eG*e[5mC]*eT*eG*eG) [compound 206194] | 41%
206195 (antisense eT*e[5mC]*eA*e[5mC]*eG*dG*dT*dG*dT*dG*dT*d[5mC]*dA*d[5mC]*d[5mC]*eT*eT*eG*eA*eT) [compound 206195] | 73%
206196 (antisense eA*e[5mC]*e[5mC]*eT*eT*d[5mC]*dA*d[5mC]*d[5mC]*dT*d[5mC]*d[5mC]*dT*dT*dG*eA*eG*eG*eA*eA) [compound 206196] | 47%
206197 (antisense eG*e[5mC]*eA*eT*e[5mC]*dG*d[5mC]*dA*dT*dG*dA*d[5mC]*d[5mC]*dT*dT*e[5mC]*eA*e[5mC]*e[5mC]*eT) [compound 206197] | 71%
206198 (antisense eT*e[5mC]*e[5mC]*eA*eG*dG*d[5mC]*dA*dT*d[5mC]*dG*d[5mC]*dA*dT*dG*eA*e[5mC]*e[5mC]*eT*eT) [compound 206198] | 86%
206199 (antisense eT*eG*eT*e[5mC]*e[5mC]*dA*dT*dG*d[5mC]*dT*d[5mC]*dT*dT*dG*dA*eT*eG*eA*eT*eG) [compound 206199] | 68%
206200 (antisense e[5mC]*eT*eG*eG*e[5mC]*dT*dG*dT*d[5mC]*d[5mC]*dA*dT*dG*d[5mC]*dT*e[5mC]*eT*eT*eG*eA) [compound 206200] | 76%
206201 (antisense eA*eG*eG*eT*eA*dG*dG*d[5mC]*d[5mC]*dA*dT*d[5mC]*d[5mC]*d[5mC]*dT*eG*eA*eT*eG*e[5mC]) [compound 206201] | 74%
206202 (antisense eG*eT*e[5mC]*eT*e[5mC]*dG*dG*dT*dG*dG*dA*dT*dG*dA*dT*eG*eT*eT*e[5mC]*eA) [compound 206202] | 69%
206203 (antisense eT*eT*eG*eT*eG*dG*dG*dA*dG*dT*dT*dG*dA*dG*dG*eT*e[5mC]*eT*e[5mC]*eG) [compound 206203] | 55%
206204 (antisense e[5mC]*eA*eT*eT*e[5mC]*dT*dT*dG*dT*dT*d[5mC]*dT*d[5mC]*dG*d[5mC]*eG*eG*eA*e[5mC]*e[5mC]) [compound 206204] | 81%
206205 (antisense eA*eA*eA*eG*eG*dA*dT*dG*dG*d[5mC]*d[5mC]*dT*d[5mC]*dT*dT*e[5mC]*eT*e[5mC]*eG*eG) [compound 206205] | 74%
206206 (antisense e[5mC]*eG*e[5mC]*e[5mC]*eG*dG*dT*dA*dG*dG*dT*d[5mC]*dT*d[5mC]*d[5mC]*e[5mC]*eA*eG*eA*eA) [compound 206206] | 28%
206207 (antisense eG*eT*eG*eG*e[5mC]*d[5mC]*d[5mC]*dT*dG*dG*d[5mC]*dT*d[5mC]*dA*dG*eT*e[5mC]*eG*eG*eG) [compound 206207] | 80%
206208 (antisense e[5mC]*e[5mC]*eA*e[5mC]*e[5mC]*dT*d[5mC]*d[5mC]*d[5mC]*dG*d[5mC]*dG*dG*dA*dG*eG*eA*eA*eT*e[5mC]) [compound 206208] | 79%
206209 (antisense e[5mC]*eT*e[5mC]*eT*eG*dG*dG*d[5mC]*d[5mC]*dA*d[5mC]*dG*dG*d[5mC]*dA*eG*eA*eG*eA*eG) [compound 206209] | 80%
206210 (antisense e[5mC]*e[5mC]*eT*e[5mC]*e[5mC]*dA*dG*dG*dG*dA*dG*d[5mC]*dT*dA*dT*eG*eG*eA*e[5mC]*e[5mC]) [compound 206210] | 83%
206211 (antisense eT*e[5mC]*eT*eG*e[5mC]*d[5mC]*d[5mC]*dT*dG*dA*dT*dG*dT*dG*d[5mC]*eG*e[5mC]*e[5mC]*e[5mC]*eT) [compound 206211] | 59%
206213 (antisense e[5mC]*e[5mC]*e[5mC]*eT*eG*dA*dG*dG*d[5mC]*dT*dT*dG*dG*dT*dA*e[5mC]*e[5mC]*eT*eG*e[5mC]) [compound 206213] | 14%
206215 (antisense eG*e[5mC]*eA*eG*e[5mC]*dT*dG*d[5mC]*dT*dG*d[5mC]*dT*dG*d[5mC]*dA*eG*e[5mC]*e[5mC]*eG*eT) [compound 206215] | 75%

Substance | % INHIB (inhibition of human LIM domain kinase 1 mRNA levels)
206216 (antisense eT*e[5mC]*eA*e[5mC]*eA*dG*dT*dT*dT*dT*dA*dA*dT*dA*d[5mC]*eT*eT*e[5mC]*e[5mC]*eT) [compound 206216] | 0%
206217 (antisense eA*eA*eG*e[5mC]*eT*dT*d[5mC]*dA*d[5mC]*dA*dG*dT*dT*dT*dT*eA*eA*eT*eA*e[5mC]) [compound 206217] | 68%
206218 (antisense eT*eG*eA*eG*eA*dA*dA*dG*d[5mC]*dT*dT*d[5mC]*dA*d[5mC]*dA*eG*eT*eT*eT*eT) [compound 206218] | 43%
206220 (antisense e[5mC]*eA*eA*eA*eG*dT*dG*d[5mC]*dA*d[5mC]*dT*dG*dA*dG*dA*eA*eA*eG*e[5mC]*eT) [compound 206220] | 59%
206221 (antisense eT*e[5mC]*e[5mC]*e[5mC]*eA*d[5mC]*d[5mC]*dT*d[5mC]*d[5mC]*d[5mC]*dT*dA*dA*dG*eT*e[5mC]*eA*eT*eG) [compound 206221] | 17%
206222 (antisense eG*eG*eT*eG*eG*dG*dT*d[5mC]*d[5mC]*d[5mC]*dA*d[5mC]*d[5mC]*dT*d[5mC]*e[5mC]*e[5mC]*eT*eA*eA) [compound 206222] | 63%
206223 (antisense eG*eG*eT*eG*eT*dG*dT*d[5mC]*dA*d[5mC]*d[5mC]*dT*dT*dG*dA*eT*eA*eG*e[5mC]*e[5mC]) [compound 206223] | 62%
206224 (antisense eG*e[5mC]*eT*eG*e[5mC]*dT*dG*d[5mC]*dA*dG*d[5mC]*d[5mC]*dG*dT*dA*eT*eG*eA*eA*eA) [compound 206224] | 66%
206225 (antisense eG*eG*eA*eG*eT*dG*dA*dA*dA*dG*d[5mC]*dA*d[5mC]*d[5mC]*d[5mC]*eA*eG*e[5mC]*eT*eG) [compound 206225] | 74%
206226 (antisense eT*eA*eG*eG*eT*d[5mC]*d[5mC]*d[5mC]*dA*d[5mC]*dA*dG*d[5mC]*d[5mC]*d[5mC]*e[5mC]*eT*eG*eA*eG) [compound 206226] | 9%
206227 (antisense e[5mC]*eT*e[5mC]*eA*eG*dA*d[5mC]*d[5mC]*d[5mC]*dT*dT*dG*dA*dG*dT*eT*eA*e[5mC]*eT*eG) [compound 206227] | 68%
206228 (antisense eA*e[5mC]*eT*eG*e[5mC]*d[5mC]*dT*d[5mC]*dT*d[5mC]*dG*dG*dG*dT*dT*e[5mC]*eA*eA*eG*e[5mC]) [compound 206228] | 69%
206229 (antisense eG*eT*e[5mC]*eA*e[5mC]*dA*dA*d[5mC]*dA*d[5mC]*d[5mC]*dT*dG*d[5mC]*dA*eG*eG*eA*eG*eA) [compound 206229] | 66%
206230 (antisense e[5mC]*e[5mC]*eA*eG*eG*dT*dG*dA*dG*dT*dG*dT*dG*d[5mC]*dA*eA*eG*eG*e[5mC]*eA) [compound 206230] | 74%
206231 (antisense eG*e[5mC]*eA*eG*eT*dG*d[5mC]*d[5mC]*d[5mC]*dG*d[5mC]*dT*dG*d[5mC]*dA*eA*eG*eA*eG*e[5mC]) [compound 206231] | 76%
206232 (antisense eA*eT*eG*e[5mC]*eT*dG*d[5mC]*dA*dG*d[5mC]*dT*d[5mC]*d[5mC]*dT*d[5mC]*e[5mC]*eT*eG*eG*eG) [compound 206232] | 81%
206233 (antisense eG*eG*eT*e[5mC]*e[5mC]*dT*dT*dG*d[5mC]*dG*d[5mC]*dT*dG*dG*dG*eA*eG*eG*e[5mC]*e[5mC]) [compound 206233] | 80%
206234 (antisense e[5mC]*eA*eT*eT*e[5mC]*dT*dT*dG*dT*dT*d[5mC]*dT*dG*dG*dG*eA*eA*eG*eG*eT) [compound 206234] | 61%
206235 (antisense eT*eA*eG*e[5mC]*eT*dG*dG*dG*dA*dT*dT*dA*d[5mC]*dA*dG*eT*eA*e[5mC]*eT*eA) [compound 206235] | 53%
206236 (antisense e[5mC]*eT*eG*eG*eA*d[5mC]*d[5mC]*dT*dA*d[5mC]*d[5mC]*dT*d[5mC]*dG*d[5mC]*eA*e[5mC]*eA*eG*eG) [compound 206236] | 43%
